Like-named read-outs stand apart in the source and are kept apart here.

In paper doi:10.1101/2024.08.19.608619, “Discovery of potent SARS-CoV-2 nsp3 macrodomain inhibitors uncovers lack of translation to cellular antiviral response” (bioRxiv, 2024) one finds remaining activity data, which are given here for five compounds.

What all share (assay): biochemical
Holding throughout (design): In vitro kinase panel profiling, per cent remaining kinase activity at 10 uM

One experiment addresses T1, Aurora-A(h) (Homo sapiens, UniProt O14965).
T1 construct: gene AURKA
T1 sequence (O14965 1-403): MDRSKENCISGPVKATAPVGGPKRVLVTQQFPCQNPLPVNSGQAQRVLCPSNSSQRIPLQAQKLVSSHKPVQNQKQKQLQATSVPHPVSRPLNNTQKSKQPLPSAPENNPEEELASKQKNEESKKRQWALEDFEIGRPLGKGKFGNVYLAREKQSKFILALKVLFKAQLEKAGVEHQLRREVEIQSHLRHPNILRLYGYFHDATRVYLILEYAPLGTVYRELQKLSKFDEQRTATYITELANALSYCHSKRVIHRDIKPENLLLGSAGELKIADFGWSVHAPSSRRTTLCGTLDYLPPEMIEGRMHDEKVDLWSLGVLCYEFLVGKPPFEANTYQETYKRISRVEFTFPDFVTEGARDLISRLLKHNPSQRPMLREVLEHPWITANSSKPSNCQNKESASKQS
As to conditions: atp_concentration=15, read-out: % of control remaining. An excerpt: (§1) We derisk potential for off-target activity by profiling the compound in a CEREP panel, a standard secondary pharmacology assessment, as well as a kinase panel to derisk a potential hinge-binding motif in our leads, and a PARP panel to derisk activity against human […]. Reassuringly, the compounds are selective, with the only off-targets being moderate human CHRM2 and KOR receptors activity associated with ASAP-0011198.

Another experiment deals with CDK2/cyclinA(h) (Homo sapiens, UniProt P24941). The settings on record: atp_concentration=45, read-out: % of control remaining.
Description: as §1

The target in the next experiment is T2, GSK3β(h) (Homo sapiens, UniProt P49841).
T2 construct: gene GSK3B
T2 sequence (P49841 whole entry): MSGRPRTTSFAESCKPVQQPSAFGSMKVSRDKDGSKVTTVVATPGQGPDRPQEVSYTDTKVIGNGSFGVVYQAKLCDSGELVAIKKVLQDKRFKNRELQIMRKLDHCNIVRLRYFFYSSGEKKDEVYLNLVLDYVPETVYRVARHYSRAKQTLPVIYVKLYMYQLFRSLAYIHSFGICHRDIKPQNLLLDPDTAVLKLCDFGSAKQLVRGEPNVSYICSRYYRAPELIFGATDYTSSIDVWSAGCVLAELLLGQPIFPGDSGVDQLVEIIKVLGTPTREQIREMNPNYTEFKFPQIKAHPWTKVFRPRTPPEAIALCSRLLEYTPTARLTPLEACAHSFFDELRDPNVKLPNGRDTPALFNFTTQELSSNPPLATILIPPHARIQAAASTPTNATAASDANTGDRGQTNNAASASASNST
As to conditions: atp_concentration=15, read-out: % of control remaining.
Description: as §1

The next experiment has as its target JAK2(h) (Homo sapiens, UniProt O60674). The settings on record: atp_concentration=45, read-out: % of control remaining.
Description: as §1

The target in a further experiment is T3, MEK1(h) (Homo sapiens, UniProt Q02750).
T3 construct: gene MAP2K1
T3 sequence (Q02750 whole entry): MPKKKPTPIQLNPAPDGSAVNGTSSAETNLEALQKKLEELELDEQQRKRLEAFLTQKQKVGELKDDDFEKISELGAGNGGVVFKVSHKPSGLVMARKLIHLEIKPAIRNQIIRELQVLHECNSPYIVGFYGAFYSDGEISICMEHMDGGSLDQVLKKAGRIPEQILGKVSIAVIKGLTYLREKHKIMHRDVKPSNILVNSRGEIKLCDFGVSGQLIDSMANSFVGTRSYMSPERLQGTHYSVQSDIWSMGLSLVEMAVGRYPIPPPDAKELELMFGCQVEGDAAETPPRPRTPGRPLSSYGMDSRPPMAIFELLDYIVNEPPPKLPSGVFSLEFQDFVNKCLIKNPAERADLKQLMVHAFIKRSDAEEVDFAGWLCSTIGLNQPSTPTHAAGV
The settings on record: atp_concentration=10, read-out: % of control remaining.
Description: as §1

The next experiment has as its target T4, NEK2(h) (Homo sapiens, UniProt P51955).
T4 sequence (P51955 1-445): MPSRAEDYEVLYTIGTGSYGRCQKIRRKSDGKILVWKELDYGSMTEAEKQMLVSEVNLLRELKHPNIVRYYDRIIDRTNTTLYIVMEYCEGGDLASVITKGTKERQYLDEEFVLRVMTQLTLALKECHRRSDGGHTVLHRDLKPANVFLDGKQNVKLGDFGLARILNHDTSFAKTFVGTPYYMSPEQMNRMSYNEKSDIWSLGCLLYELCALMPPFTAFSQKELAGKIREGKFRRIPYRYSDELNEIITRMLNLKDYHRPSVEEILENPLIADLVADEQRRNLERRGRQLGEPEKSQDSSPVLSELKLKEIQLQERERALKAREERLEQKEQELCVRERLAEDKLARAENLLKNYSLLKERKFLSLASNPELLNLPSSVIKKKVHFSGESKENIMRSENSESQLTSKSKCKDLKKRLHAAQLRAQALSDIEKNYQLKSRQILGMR
As to conditions: atp_concentration=120, read-out: % of control remaining.
Description: as §1

The next experiment deals with T5, PDGFRβ(h) (Homo sapiens, UniProt P09619).
T5 construct: gene PDGFRB
T5 sequence (P09619 whole entry): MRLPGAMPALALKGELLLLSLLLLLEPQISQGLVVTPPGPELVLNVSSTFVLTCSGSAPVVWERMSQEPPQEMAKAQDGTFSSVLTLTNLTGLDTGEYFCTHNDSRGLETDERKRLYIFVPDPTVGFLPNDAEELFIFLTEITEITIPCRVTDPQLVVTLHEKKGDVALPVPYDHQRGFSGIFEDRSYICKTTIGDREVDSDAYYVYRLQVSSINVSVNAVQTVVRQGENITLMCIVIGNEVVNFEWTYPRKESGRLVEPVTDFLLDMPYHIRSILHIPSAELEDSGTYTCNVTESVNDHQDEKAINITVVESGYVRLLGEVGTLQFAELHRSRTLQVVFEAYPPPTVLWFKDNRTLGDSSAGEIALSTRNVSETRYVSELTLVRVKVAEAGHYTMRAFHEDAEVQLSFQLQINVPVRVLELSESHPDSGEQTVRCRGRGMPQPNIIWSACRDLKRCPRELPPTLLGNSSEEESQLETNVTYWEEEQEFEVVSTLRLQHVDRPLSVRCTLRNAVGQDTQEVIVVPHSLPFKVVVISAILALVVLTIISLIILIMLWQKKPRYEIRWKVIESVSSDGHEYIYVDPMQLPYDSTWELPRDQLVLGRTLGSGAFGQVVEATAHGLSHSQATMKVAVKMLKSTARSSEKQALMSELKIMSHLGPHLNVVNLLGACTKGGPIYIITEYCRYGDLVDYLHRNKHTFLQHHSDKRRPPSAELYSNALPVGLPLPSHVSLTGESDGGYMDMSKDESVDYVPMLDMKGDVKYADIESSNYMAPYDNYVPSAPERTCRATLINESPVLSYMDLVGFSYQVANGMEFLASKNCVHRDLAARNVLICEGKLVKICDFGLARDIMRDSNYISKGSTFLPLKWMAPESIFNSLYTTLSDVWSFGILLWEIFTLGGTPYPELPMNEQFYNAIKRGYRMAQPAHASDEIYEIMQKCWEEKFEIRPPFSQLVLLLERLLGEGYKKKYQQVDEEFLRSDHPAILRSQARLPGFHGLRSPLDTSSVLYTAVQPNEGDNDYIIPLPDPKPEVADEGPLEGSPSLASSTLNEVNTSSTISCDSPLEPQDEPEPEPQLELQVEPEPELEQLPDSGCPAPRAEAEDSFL
The settings on record: atp_concentration=200, read-out: % of control remaining.
Description: as §1

Experiment [1] concerns the target T6, PI3 Kinase (p110α/p85α)(h) (Homo sapiens, UniProt P42336).
T6 construct: gene PIK3CA
As to conditions: atp_concentration=200, read-out: % of control remaining.
Description: as §1

The target of a further experiment is T7, Pim-1(h) (Homo sapiens, UniProt P11309).
T7 construct: gene PIM1
T7 sequence (P11309 whole entry): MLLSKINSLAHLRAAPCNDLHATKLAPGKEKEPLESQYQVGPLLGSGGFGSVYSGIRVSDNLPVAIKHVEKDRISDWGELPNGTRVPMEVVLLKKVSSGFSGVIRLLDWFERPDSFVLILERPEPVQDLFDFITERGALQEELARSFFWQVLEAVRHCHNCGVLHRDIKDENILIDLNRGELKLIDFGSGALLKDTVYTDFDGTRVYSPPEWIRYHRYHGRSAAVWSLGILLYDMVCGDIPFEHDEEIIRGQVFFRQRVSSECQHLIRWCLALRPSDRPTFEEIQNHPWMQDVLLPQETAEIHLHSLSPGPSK
As to conditions: atp_concentration=90, read-out: % of control remaining.
Description: as §1

A further experiment concerns the target Plk3(h) (Homo sapiens, UniProt Q9H4B4). The settings on record: atp_concentration=70, read-out: % of control remaining.
Description: as §1

Another experiment concerns the target T8, TAK1(h) (Homo sapiens, UniProt O43318).
T8 construct: gene MAP3K7
T8 sequence (O43318 1-606): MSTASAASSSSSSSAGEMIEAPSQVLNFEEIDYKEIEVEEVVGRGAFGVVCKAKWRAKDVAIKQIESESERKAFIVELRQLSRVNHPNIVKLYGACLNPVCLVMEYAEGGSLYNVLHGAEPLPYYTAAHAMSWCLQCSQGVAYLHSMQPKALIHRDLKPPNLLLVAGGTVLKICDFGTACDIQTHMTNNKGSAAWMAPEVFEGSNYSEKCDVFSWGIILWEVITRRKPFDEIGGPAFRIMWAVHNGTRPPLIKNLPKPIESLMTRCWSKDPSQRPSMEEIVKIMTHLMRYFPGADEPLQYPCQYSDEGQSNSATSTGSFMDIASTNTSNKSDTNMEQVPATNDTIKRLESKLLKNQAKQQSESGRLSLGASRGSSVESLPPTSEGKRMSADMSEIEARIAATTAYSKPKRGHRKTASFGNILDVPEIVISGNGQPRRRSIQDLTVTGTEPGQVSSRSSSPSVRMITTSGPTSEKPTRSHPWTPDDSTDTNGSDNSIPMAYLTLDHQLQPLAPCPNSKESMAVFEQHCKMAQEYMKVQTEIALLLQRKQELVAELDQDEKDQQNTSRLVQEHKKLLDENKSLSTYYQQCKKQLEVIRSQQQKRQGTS
As to conditions: atp_concentration=45, read-out: % of control remaining.
Description: as §1

JAK2(h), sequence (O60674 whole entry): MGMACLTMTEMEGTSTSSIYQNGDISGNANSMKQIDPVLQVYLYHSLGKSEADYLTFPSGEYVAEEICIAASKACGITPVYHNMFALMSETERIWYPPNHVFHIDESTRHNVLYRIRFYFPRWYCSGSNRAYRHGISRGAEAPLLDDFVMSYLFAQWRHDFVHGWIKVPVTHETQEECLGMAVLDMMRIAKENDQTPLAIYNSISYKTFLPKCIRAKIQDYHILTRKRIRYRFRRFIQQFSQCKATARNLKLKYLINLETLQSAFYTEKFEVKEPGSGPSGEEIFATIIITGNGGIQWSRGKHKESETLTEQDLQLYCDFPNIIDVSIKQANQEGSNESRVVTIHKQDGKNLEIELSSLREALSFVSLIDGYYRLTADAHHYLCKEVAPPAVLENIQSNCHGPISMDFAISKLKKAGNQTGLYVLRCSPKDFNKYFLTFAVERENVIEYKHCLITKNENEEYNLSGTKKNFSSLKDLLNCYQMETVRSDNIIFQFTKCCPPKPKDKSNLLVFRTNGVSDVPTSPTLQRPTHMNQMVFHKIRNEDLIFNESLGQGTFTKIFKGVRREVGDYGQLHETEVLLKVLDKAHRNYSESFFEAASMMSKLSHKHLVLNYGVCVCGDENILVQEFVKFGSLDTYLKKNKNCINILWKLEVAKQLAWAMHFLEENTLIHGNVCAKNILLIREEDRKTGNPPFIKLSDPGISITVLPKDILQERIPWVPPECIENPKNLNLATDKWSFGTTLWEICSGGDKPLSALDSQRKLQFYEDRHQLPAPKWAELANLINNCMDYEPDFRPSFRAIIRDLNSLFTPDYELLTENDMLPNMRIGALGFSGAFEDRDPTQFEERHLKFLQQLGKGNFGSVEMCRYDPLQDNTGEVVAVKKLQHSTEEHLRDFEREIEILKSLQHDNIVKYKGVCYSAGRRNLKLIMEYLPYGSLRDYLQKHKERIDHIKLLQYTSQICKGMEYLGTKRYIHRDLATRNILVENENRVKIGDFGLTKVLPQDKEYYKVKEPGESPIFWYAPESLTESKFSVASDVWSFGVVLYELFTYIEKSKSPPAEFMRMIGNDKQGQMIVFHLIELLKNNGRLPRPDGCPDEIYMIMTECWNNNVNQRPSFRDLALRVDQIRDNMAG
Plk3(h), sequence (Q9H4B4 whole entry): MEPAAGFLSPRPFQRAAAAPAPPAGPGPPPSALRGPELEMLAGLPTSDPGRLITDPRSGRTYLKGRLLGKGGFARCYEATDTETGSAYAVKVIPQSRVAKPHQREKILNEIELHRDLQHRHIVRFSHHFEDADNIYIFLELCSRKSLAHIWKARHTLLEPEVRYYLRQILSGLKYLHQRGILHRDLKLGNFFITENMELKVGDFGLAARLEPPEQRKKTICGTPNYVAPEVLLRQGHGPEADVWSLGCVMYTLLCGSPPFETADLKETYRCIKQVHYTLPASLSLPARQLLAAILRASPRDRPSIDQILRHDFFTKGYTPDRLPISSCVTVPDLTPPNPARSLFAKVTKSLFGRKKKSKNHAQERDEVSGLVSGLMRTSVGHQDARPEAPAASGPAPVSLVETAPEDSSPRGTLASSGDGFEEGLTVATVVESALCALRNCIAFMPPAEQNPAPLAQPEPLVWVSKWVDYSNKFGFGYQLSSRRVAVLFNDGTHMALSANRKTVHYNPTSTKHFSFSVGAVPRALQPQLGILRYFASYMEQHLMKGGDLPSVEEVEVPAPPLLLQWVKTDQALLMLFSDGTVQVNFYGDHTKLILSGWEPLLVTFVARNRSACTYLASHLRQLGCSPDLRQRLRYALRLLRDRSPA

For `CC(C)C(Nc1ncnc2[nH]ccc12)c1ccc2c(c1)S(=O)(=O)CCC2` (stereo not shown) [ASAP-0008327], the remaining activity at 10 µM is 57% on Aurora-A(h) (batch_name=ASAP-0008327-001); 96% at CDK2/cyclinA(h) (batch_name=ASAP-0008327-001); 107% on GSK3β(h) (batch_name=ASAP-0008327-001); 110% on JAK2(h) (batch_name=ASAP-0008327-001); 97% on MEK1(h) (batch_name=ASAP-0008327-001); 118% at NEK2(h) (batch_name=ASAP-0008327-001). Also, the remaining activity at 10 µM at PDGFRβ(h) (batch_name=ASAP-0008327-001) amounted to 99%; in [1] (batch_name=ASAP-0008327-001), 104%; on Pim-1(h) (batch_name=ASAP-0008327-001), 80%; on Plk3(h) (batch_name=ASAP-0008327-001), 103%; at TAK1(h) (batch_name=ASAP-0008327-001) it was 83%.
In the case of `COc1ccc([C@@H](Cc2nnn[nH]2)NC(=O)c2ncnc3[nH]ccc23)cc1` [ASAP-0008340], the remaining activity at 10 µM was 71% at Aurora-A(h) (batch_name=ASAP-0008340-001); 97% on CDK2/cyclinA(h) (batch_name=ASAP-0008340-001); 105% at GSK3β(h) (batch_name=ASAP-0008340-001); 102% on JAK2(h) (batch_name=ASAP-0008340-001); 92% at MEK1(h) (batch_name=ASAP-0008340-001); 100% at NEK2(h) (batch_name=ASAP-0008340-001). Further, the remaining activity at 10 µM at PDGFRβ(h) (batch_name=ASAP-0008340-001) stood at 102%; in experiment [1] (batch_name=ASAP-0008340-001), 101%; on Pim-1(h) (batch_name=ASAP-0008340-001) it was 91%; on Plk3(h) (batch_name=ASAP-0008340-001), 102%; at TAK1(h) (batch_name=ASAP-0008340-001), 88%.
In the case of `CC(C)[C@@H](Nc1ncnc2[nH]c(-c3cnn(C)c3C#N)cc12)c1ccc2c(n1)OCCO2` [ASAP-0008418], the remaining activity at 10 µM on Aurora-A(h) (batch_name=ASAP-0008418-001) was 44%; on CDK2/cyclinA(h) (batch_name=ASAP-0008418-001), 95%; at GSK3β(h) (batch_name=ASAP-0008418-001), 85%; on JAK2(h) (batch_name=ASAP-0008418-001), 101%; at MEK1(h) (batch_name=ASAP-0008418-001) it was 99%; on NEK2(h) (batch_name=ASAP-0008418-001), 94%. Further, the remaining activity at 10 µM on PDGFRβ(h) (batch_name=ASAP-0008418-001) is 108%; in [1] (batch_name=ASAP-0008418-001), 49%; at Pim-1(h) (batch_name=ASAP-0008418-001), 79%; at Plk3(h) (batch_name=ASAP-0008418-001), 90%; at TAK1(h) (batch_name=ASAP-0008418-001), 103%.
On to `CC(C)[C@H](Nc1ncnc2[nH]ccc12)c1ccc2c(c1)S(=O)(=O)CCC2` [ASAP-0008674], for which the remaining activity at 10 µM on Aurora-A(h) (batch_name=ASAP-0008674-002) was found to be 51%; at CDK2/cyclinA(h) (batch_name=ASAP-0008674-002), 102%; on GSK3β(h) (batch_name=ASAP-0008674-002) it was 94%; at JAK2(h) (batch_name=ASAP-0008674-002), 99%; on MEK1(h) (batch_name=ASAP-0008674-002), 94%; on NEK2(h) (batch_name=ASAP-0008674-002) it was 109%. Also, the remaining activity at 10 µM on PDGFRβ(h) (batch_name=ASAP-0008674-002) was determined as 89%; in [1] (batch_name=ASAP-0008674-002), 94%; at Pim-1(h) (batch_name=ASAP-0008674-002) it was 91%; at Plk3(h) (batch_name=ASAP-0008674-002), 112%; on TAK1(h) (batch_name=ASAP-0008674-002), 90%.
On to `CC(C)[C@H](Nc1ncnc2[nH]c(-c3cnn(C)c3C#N)cc12)c1ccc2c(n1)OCCO2` [ASAP-0010715], for which the remaining activity at 10 µM at Aurora-A(h) (batch_name=ASAP-0010715-002) amounted to 53%; on CDK2/cyclinA(h) (batch_name=ASAP-0010715-002), 104%; on GSK3β(h) (batch_name=ASAP-0010715-002) it was 98%; at JAK2(h) (batch_name=ASAP-0010715-002) it was 115%; at MEK1(h) (batch_name=ASAP-0010715-002), 97%; at NEK2(h) (batch_name=ASAP-0010715-002), 105%. Further, the remaining activity at 10 µM was 92% at PDGFRβ(h) (batch_name=ASAP-0010715-002); 70% in experiment [1] (batch_name=ASAP-0010715-002); 98% on Pim-1(h) (batch_name=ASAP-0010715-002); 102% at Plk3(h) (batch_name=ASAP-0010715-002); 94% on TAK1(h) (batch_name=ASAP-0010715-002).
